Laboratory results from ChEMBL document CHEMBL6092135, “Current development and structure-activity relationship study of berberine derivatives” (Bioorg Med Chem, 2024).

Legend:
Candida albicans [1] = assay: Antifungal activity against Candida albicans ATCC 10231 assessed as reduction in fungal growth by NCCLS method; type: functional
Cryptococcus neoformans = assay: Antifungal activity against Cryptococcus neoformans assessed as fungal growth inhibition by CLSI based method; type: functional
Aspergillus niger = assay: Antifungal activity against Aspergillus niger assessed as inhibition of fungal growth incubated for 48 hrs by CLSI protocol based analysis; type: functional
[2] = Antiproliferative activity against human QGY-7701 cells assessed as reduction in cell growth; type: functional, cell-based; conditions: QGY7701
HepG2 [3] = assay: Antiproliferative activity against human HepG2 cells assessed as reduction in cell growth; type: functional, cell-based
SMMC-7721 = assay: Antiproliferative activity against human SMMC-7721 cells assessed as reduction in cell growth; type: functional, cell-based
[4] = test system: Lewis lung carcinoma cell line; assay: Cytotoxicity against mouse Lewis lung carcinoma cell line; type: functional, cell-based
CEM-VCR = assay: Antiproliferative activity against human CEM-VCR cells assessed as reduction in cell growth; type: functional, cell-based
HCT-116 = assay: Cytotoxicity against human HCT-116 cells assessed as reduction in cell viability incubated for 24 hrs by MTT assay; type: functional, cell-based; conditions: HCT-116, 24 h
C6 = assay: Antiproliferative activity against rat C6 cells assessed as inhibition of cell growth incubated for 72 hrs by Sulforhodamine B assay; type: functional, cell-based; conditions: C6, 72 h
HT-29 = assay: Antiproliferative activity against human HT-29 cells assessed as reduction in cell viability incubated for 24 hrs by MTT assay; type: functional, cell-based; conditions: HT-29, 24 h
HepG2 [5] = assay: Cytotoxicity against human HepG2 cells assessed as reduction in cell viability by MTT assay; type: functional, cell-based
BFTC-905 = assay: Antiproliferative activity against human BFTC-905 cells assessed as reduction in cell viability; type: functional, cell-based
Candida albicans [6] = assay: Antifungal activity against Candida albicans assessed as reduction in fungal growth incubated for 12 hrs by microdilution method; type: functional
HeLa [7] = assay: Cytotoxicity against human HeLa cells assessed as reduction in cell viability measured after 48 hrs by SRB assay; type: functional, cell-based
[8] = Antioxidant activity assessed as DPPH radical scavenging activity measured for 30 mins by spectrophotometric analysis; type: functional
Ca-Ski = assay: Cytotoxicity against human Ca-Ski cells assessed as reduction in cell viability measured after 48 hrs by SRB assay; type: functional, cell-based
Listeria monocytogenes = assay: Antibacterial activity against Listeria monocytogenes ATCC 19111 assessed as reduction in bacterial growth incubated for 20 to 24 hrs by microbroth serial dilution assay; type: functional; conditions: time 20-24 hrs
Salmonella typhimurium = assay: Antimicrobial activity against Salmonella enterica subsp. enterica serovar Typhimurium LT2 assessed as inhibition of bacterial growth measured for 24 hrs by broth micro-dilution method; type: functional
Plasmodium falciparum = assay: Antiplasmodial activity against Plasmodium falciparum 3D7 assessed as inhibition of parasite growth measured for 42 hrs by SYBR Green staining based fluorescence analysis; type: functional, organism-based; conditions: 3D7, 42 h
A549 [9] = assay: Antiproliferative activity against human A549 cells assessed as reduction in cell viability incubated for 24 hrs by CCK-8 assay; type: functional, cell-based; conditions: A549, 24 h
HeLa [10] = assay: Anticancer activity against human HeLa cells; type: functional, cell-based
A549 [11] = assay: Anticancer activity against human A549 cells; type: functional, cell-based
DNA topoisomerase 1 = DNA topoisomerase 1 (Homo sapiens, UniProt P11387); assay: Inhibition of Topoisomerase 1 (unknown origin)
DNA topoisomerase 1, sequence (P11387 whole entry): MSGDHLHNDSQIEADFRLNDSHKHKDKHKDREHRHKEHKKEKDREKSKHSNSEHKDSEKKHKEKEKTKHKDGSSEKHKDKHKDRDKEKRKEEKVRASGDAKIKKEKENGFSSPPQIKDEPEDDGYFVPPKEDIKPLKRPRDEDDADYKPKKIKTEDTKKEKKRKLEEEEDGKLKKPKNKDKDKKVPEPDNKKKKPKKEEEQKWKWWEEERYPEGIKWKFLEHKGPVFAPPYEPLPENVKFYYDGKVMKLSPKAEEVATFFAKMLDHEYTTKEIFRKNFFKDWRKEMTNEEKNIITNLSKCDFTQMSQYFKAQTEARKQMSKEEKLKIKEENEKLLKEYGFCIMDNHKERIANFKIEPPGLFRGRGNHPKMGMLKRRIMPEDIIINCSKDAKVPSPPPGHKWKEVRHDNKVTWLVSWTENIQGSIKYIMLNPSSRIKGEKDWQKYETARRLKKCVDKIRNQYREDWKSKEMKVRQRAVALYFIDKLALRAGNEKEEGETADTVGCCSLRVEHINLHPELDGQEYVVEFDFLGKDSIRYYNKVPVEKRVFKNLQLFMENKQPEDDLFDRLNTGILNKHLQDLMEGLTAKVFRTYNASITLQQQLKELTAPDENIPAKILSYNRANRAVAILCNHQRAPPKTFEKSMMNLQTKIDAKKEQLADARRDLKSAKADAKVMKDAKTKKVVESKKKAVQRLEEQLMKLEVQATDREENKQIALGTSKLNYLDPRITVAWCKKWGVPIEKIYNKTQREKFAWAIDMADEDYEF

Escherichia coli = assay: Antibacterial activity against Escherichia coli ATCC 25922 assessed as bacterial growth inhibition measured after 48 hrs by resazurin assay; type: functional
Enterovirus A71 = assay: Antiviral activity against human EV71 infected in human RD cells assessed as inhibition of cytopathic effect by microscopy based analysis; type: functional, organism-based; conditions: Enterovirus A
CCRF-CEM = assay: Antiproliferative activity against human CEM cells assessed as reduction in cell viability measured after 3 to 4 days by MTT assay; type: functional, cell-based
[12] = test system: Mycobacterium tuberculosis; assay: Antimycobacterial activity against Mycobacterium tuberculosis H37Rv assessed as reduction in bacterial growth incubated for 7 days by resazurin based assay; type: functional; conditions: 168 h, time 7 day
Coxsackievirus B3 = assay: Antiviral activity against Coxsackievirus B3 infected in human HEp-2 cells assessed as inhibition of virus-induced cytopathic effect measured after 48 hrs by MTT assay; type: functional, organism-based; conditions: Enterovirus B, HEp-2, 48 h
Staphylococcus aureus [13] = assay: Antibacterial activity against Staphylococcus aureus ATCC 25923 assessed as reduction in bacterial growth incubated for 24 hrs by serial dilution method; type: functional
Bacillus cereus = assay: Antibacterial activity against Bacillus cereus ATCC 27348 assessed as inhibition of bacterial growth incubated for 18 hrs by microdilution method; type: functional
Bacillus anthracis = assay: Antibacterial activity against Bacillus anthracis; type: functional
Enterococcus faecium = assay: Antibacterial activity against Enterococcus faecium ATCC 19434 assessed as reduction in microbial growth measured after 24 hrs by two-fold serial dilution method; type: functional
Enterococcus faecalis = assay: Antibacterial activity against Enterococcus faecalis ATCC 29212 assessed as reduction in microbial growth after 16 hrs by broth microdilution method; type: functional
Staphylococcus aureus [14] = assay: Antibacterial activity against Staphylococcus aureus ATCC 25923 assessed as reduction in microbial growth measured after 24 hrs by spectrophotometric method; type: functional

COc1ccc2c(Cc3ccc(C(C)(C)C)cc3)c3[n+](cc2c1OC)CCc1cc2c(cc1-3)OCO2
MIC (Candida albicans [1]): 1.56 µg/mL

CCCCOc1c(OC)ccc2c(Cc3ccc(C(C)C)cc3)c3[n+](cc12)CCc1cc2c(cc1-3)OCO2.[Cl-]
MIC (Cryptococcus neoformans): 0.25 µg/mL | MIC (Aspergillus niger): 0.25 µg/mL

CCCCCCCCc1c2[n+](cc3c(OC)c(OC)ccc13)CCc1cc3c(cc1-2)OCO3
IC50 [2]: 0.02 µM | IC50 (HepG2 [3]): 0.02 µM | IC50 (SMMC-7721): 0.02 µM | IC50 [4]: 0.02 µM | IC50 (CEM-VCR): 0.02 µM

COc1ccc2c(c[n+]3c4c2ccc2c5c(cc(c24)CC3)OCO5)c1OC(=O)c1ccccc1
IC50 (HCT-116): 0.47 µM

CCCCCCCCCCCCc1c2[n+](cc3c(OC)c(OC)ccc13)CCc1cc3c(cc1-2)OCO3
IC50 (C6): 0.77 µM | IC50 (HT-29): 0.77 µM | IC50 (HepG2 [5]): 0.77 µM | IC50 (BFTC-905): 0.77 µM

COc1ccc2c(Cc3ccc(C(C)C)cc3)c3[n+](cc2c1O)CCc1cc2c(cc1-3)OCO2.[Cl-]
MIC (Candida albicans [6]): 1 µg/mL

COc1cc(CN2CCN(c3ccc(C)cc3C)CC2)c2cc3[n+](cc2c1O)CCc1cc2c(cc1-3)OCO2
IC50 (HeLa [7]): 7.33 µM | IC50 [8]: 19.8 µM | IC50 (Ca-Ski): 5.75 µM

COc1cc(CN2CCN(C(c3ccccc3)c3ccccc3)CC2)c2cc3[n+](cc2c1O)CCc1cc2c(cc1-3)OCO2.[Cl-]
MIC (Listeria monocytogenes): 200 µg/mL

COc1cc(CN2CCN(c3ccc(F)cc3F)CC2)c2cc3[n+](cc2c1O)CCc1cc2c(cc1-3)OCO2
IC50 (HeLa [7]): 7.33 µM | IC50 [8]: 19.8 µM | IC50 (Ca-Ski): 5.75 µM

COc1cc(CN2CCN(c3ccccc3Cl)CC2)c2cc3[n+](cc2c1O)CCc1cc2c(cc1-3)OCO2.[Cl-]
MIC (Listeria monocytogenes): 200 µg/mL

COc1ccc(N2CCN(Cc3cc(OC)c(O)c4c[n+]5c(cc34)-c3cc4c(cc3CC5)OCO4)CC2)c(OC)c1
IC50 (HeLa [7]): 7.33 µM | IC50 [8]: 19.8 µM | IC50 (Ca-Ski): 5.75 µM

COc1cc(CN2CCN(c3cccc(Cl)c3Cl)CC2)c2cc3[n+](cc2c1O)CCc1cc2c(cc1-3)OCO2
IC50 (HeLa [7]): 7.33 µM | IC50 [8]: 19.8 µM | IC50 (Ca-Ski): 5.75 µM

COc1cc(CN2CCN(c3ccc(Cl)c(Cl)c3)CC2)c2cc3[n+](cc2c1O)CCc1cc2c(cc1-3)OCO2
IC50 (HeLa [7]): 7.33 µM | IC50 [8]: 19.8 µM | IC50 (Ca-Ski): 5.75 µM

COc1cc(Cn2ccnc2)c2cc3[n+](cc2c1O)CCc1cc2c(cc1-3)OCO2.[Cl-]
MIC (Salmonella typhimurium): 1 µg/mL

COc1cc(CN2CCN(c3cccc(C)c3C)CC2)c2cc3[n+](cc2c1O)CCc1cc2c(cc1-3)OCO2
IC50 (HeLa [7]): 7.33 µM | IC50 [8]: 19.8 µM | IC50 (Ca-Ski): 5.75 µM

COc1cc(CN2CCN(c3cccc(F)c3F)CC2)c2cc3[n+](cc2c1O)CCc1cc2c(cc1-3)OCO2
IC50 (HeLa [7]): 7.33 µM | IC50 [8]: 19.8 µM | IC50 (Ca-Ski): 5.75 µM

COc1cc(CN2CCN(c3ccc(Cl)cc3Cl)CC2)c2cc3[n+](cc2c1O)CCc1cc2c(cc1-3)OCO2
IC50 (HeLa [7]): 7.33 µM | IC50 [8]: 19.8 µM | IC50 (Ca-Ski): 5.75 µM

COc1ccc2cc3[n+](cc2c1OCc1cn(-c2ccc(S(=O)(=O)N4CCOCC4)cc2)nn1)CCc1cc2c(cc1-3)OCO2.[Cl-]
IC50 (Plasmodium falciparum): 0.2 µg/mL

COc1ccc2cc3[n+](cc2c1OCc1cn(-c2ccc(S(=O)(=O)Nc4ccc(F)cc4)cc2)nn1)CCc1cc2c(cc1-3)OCO2.[Cl-]
IC50 (Plasmodium falciparum): 0.2 µg/mL

COc1ccc2cc3[n+](cc2c1OCc1cn(-c2ccc(S(=O)(=O)Nc4ccc(Cl)cc4)cc2)nn1)CCc1cc2c(cc1-3)OCO2.[Cl-]
IC50 (Plasmodium falciparum): 0.2 µg/mL

COc1ccc2cc3[n+](cc2c1OCc1cn(-c2ccc(S(N)(=O)=O)cc2)nn1)CCc1cc2c(cc1-3)OCO2.[Cl-]
IC50 (Plasmodium falciparum): 0.2 µg/mL

CCCCCCN(CCCCCC)c1cc(OC)c(O)c2c[n+]3c(cc12)-c1cc2c(cc1CC3)OCO2
IC50 (A549 [9]): 0.29 µM

COc1ccc2cc3[n+](cc2c1OCCn1cccn1)CCc1cc2c(cc1-3)OCO2
IC50 (HeLa [10]): 8.99 µM | IC50 (A549 [11]): 8.99 µM

COc1ccc2c(c1OS(=O)(=O)c1c(F)c(F)cc(F)c1F)CN1CCc3cc4c(cc3C1C2)OCO4 (stereo unspecified)
IC50 (DNA topoisomerase 1): 1.05 µM

COc1ccc2c(c1NS(=O)(=O)c1ccc(Cl)cc1)C[N+]1(S(=O)(=O)c3ccc(Cl)cc3)CCc3cc4c(cc3C1C2)OCO4 (stereo unspecified)
MIC (Escherichia coli): 0.5 µg/mL

COc1ccc2cc3[n+](cc2c1OCCn1nc(C)c(Cl)c1C)CCc1cc2c(cc1-3)OCO2
IC50 (HeLa [10]): 8.99 µM | IC50 (A549 [11]): 8.99 µM

COc1ccc2cc3[n+](cc2c1OCC(=O)OCc1ccccc1)CCc1cc2c(cc1-3)OCO2
IC50 (Enterovirus A71): 7.12 µM

COc1ccc2c(CCCc3ccccc3)c3[n+](cc2c1OC)CCc1cc2c(cc1-3)OCO2
IC50 (CCRF-CEM): 0.21 µM

COc1ccc2cc3[n+](cc2c1OCCn1nc(C)cc1C)CCc1cc2c(cc1-3)OCO2
IC50 (HeLa [10]): 8.99 µM | IC50 (A549 [11]): 8.99 µM

COc1ccc2cc3[n+](cc2c1OCCn1nc(C)c(Br)c1C)CCc1cc2c(cc1-3)OCO2
IC50 (HeLa [10]): 8.99 µM | IC50 (A549 [11]): 8.99 µM

CCCCCCC1c2cc(OC)c(OC)cc2C=C2c3cc4c(cc3CCN21)OCO4.Cl (stereo unspecified)
MIC [12]: 1 µg/mL

COc1ccc2cc3[n+](cc2c1)CCc1cc(OCCOCCN)c(OC)cc1-3
IC50 (Coxsackievirus B3): 3.08 µM

COc1cc2c(cc1OC)C(c1ccccc1)N1CCc3cc4c(cc3C1=C2)OCO4.Cl (stereo unspecified)
MIC [12]: 1 µg/mL

CCCCCOC(=O)COc1c(OC)ccc2cc3[n+](cc12)CCc1cc2c(cc1-3)OCO2
IC50 (Enterovirus A71): 7.12 µM

CCOC(=O)COc1c(OC)ccc2cc3[n+](cc12)CCc1cc2c(cc1-3)OCO2
IC50 (Enterovirus A71): 7.12 µM

Br.COc1ccc2c(Cc3ccccc3-c3cc4cc([N+](=O)[O-])ccc4[nH]3)c3[n+](cc2c1OC)CCc1cc2c(cc1-3)OCO2
MIC (Staphylococcus aureus [13]): 3.12 µg/mL | MIC (Bacillus cereus): 3.12 µg/mL | MIC (Bacillus anthracis): 3.12 µg/mL | MIC (Enterococcus faecium): 3.12 µg/mL | MIC (Enterococcus faecalis): 3.12 µg/mL

CCCOc1c(OC)cc(/C=C2\SC(=O)NC2=O)c2c1CN1CCc3cc4c(cc3C1C2)OCO4 (stereo unspecified)
MIC (Staphylococcus aureus [14]): 0.008 µg/mL

O=C1O[C@H]([C@@H](O)CO)C(O)=C1O [ASCORBIC ACID]
IC50 [8]: 61 µM

COc1ccc2cc3[n+](cc2c1OC)CCc1cc2c(cc1-3)OCO2 [BERBERINE]
IC50 (HeLa [7]): 13.4 µM | MIC (Staphylococcus aureus [14]): 0.698 µg/mL | IC50 [8]: 89.2 µM | IC50 (Ca-Ski): 15.2 µM

N=C(N)c1ccc(-c2ccc(-c3ccc(C(=N)N)cc3)o2)cc1 [FURAMIDINE]
IC50 (DNA topoisomerase 1): 1.2 µM

CCn1cc(C(=O)O)c(=O)c2cc(F)c(N3CCNCC3)cc21 [NORFLOXACIN]
MIC (Staphylococcus aureus [14]): 0.025 µg/mL
